Source: patent US8119629B2, “Carboxamide GABAA α2 modulators” (Bristol-Meyers Squibb Company, priority 2007, dated 2012)
Where a name gives a salt, the structure may show the parent alone.

Target: T1, rat GABAA α2β2γ2 Receptors (Rattus norvegicus, UniProt P23576)
T1 construct: expressed in transfected cells; pIRES Neo2 / Hygro2 / Puro2 vectors
Assay: PatchXpress 7000A automated parallel patch-clamp: potentiation of GABA EC20 current in HEK293 cells
Assay type: cell-based
Details: percent increase in mean GABA EC20 current response; HEK293 cells stably expressing rat GABAA α2β2γ2; voltage-clamped at −60 mV
Experimental: Cell Line Generation and Transient Expression. In order to generate stable clonal lines expressing GABAA configurations containing α2β2γ2 subunits, HEK293 cells were transfected with 2 μg of the subunit, using the Invitrogen Lipofectamine PLUS protocol. The following DNA and vector were used for the stable transfection: α2 subunits in pIRES Neo2, β2 subunit in pIRES Hygro2, and a γ2 subunit in pIRES Puro2. Transfectants were selected with G418, Hygromycin B, and Puromycin antibiotics and cloned by limiting dilution. For transient expression, transfections were performed using the Amaxa transfection protocol and 2 μg DNA of the GABAA receptor subunit using Amaxa transfection protocol. Cells were used for experiments 24-72 hrs post transfection.
PatchXpress® 7000A Automated Parallel Patch-Clamp System. HEK293 cells stably expressing recombinant the rat GABAA/α2β2γ2 configuration were harvested by a single DPBS wash followed by 0.025% Trypsin-EDTA treatment for one minute at room temperature. A 6-ml cell suspension (1.7×10^5 cells/ml) was centrifuged at 500 rpm for 60 s. The cell pellet was gently agitated, suspended in 150 μl extracellular saline buffer, and transferred to a 1.5-ml tube.
After manually placing the AVIVA Biosciences SealChip 16™ in the holder of the PatchXpress®, the SealChip16™ was automatically prepared for application of the cells. Intracellular solution containing (in mM) CsCl, 135; EGTA, 11; MgCl2, 1; HEPES, 10; ATP, 5; GTP, 0.3 (pH 7.3 with CsOH, 290-300 mOsmol) was injected into the bottom of each chamber, and extracellular solution containing (in mM) NaCl, 140; KCl, 4; CaCl2, 1.8; MgCl2, 1; glucose, 10; HEPES, 10; ATP-K2, 5 (pH 7.4 with NaOH 305-310 mOsmol) was perfused into the top of the chambers through a 16-nozzle wash station. Throughout this period, the pressure controller maintained a positive pressure (+10 mmHg) from the intracellular side to keep the hole free of debris. Seal formation was achieved by a ramp increase in negative pressure from 0 to −35 mmHg at a rate of −3.5 mmHg/s every 10 s until a giga ohm seal was obtained and verified for 30 s.
Compounds were prepared from fresh DMSO stock and were transferred to a 96-well disposable glass insert compound plate for placement in the PatchXpress®. A full 10 point concentration-response curve for GABA was obtained for the GABA receptor cell line, from which an EC20 was estimated. Test compounds were assayed for their ability to potentiate the current response by an EC20 concentration of GABA. Each experiment began by two consecutive applications of GABA EC20 alone. Following formation of a giga-ohm seal, patch chambers were perfused with extracellular saline for 60 s to remove excess cells from the well. Cells were then voltage-clamped to −60 mV for the duration of the experiment. After 60 s, 30 μl (10 μl/s over 3 s) of GABA EC20 concentration, which elicited a GABA receptor-mediated inward Cl^− current generally in the order of 200-300 pA in peak amplitude, was added to each chamber. The GABA EC20 concentration was then washed out of the recording chamber after 5 s and washing with extracellular saline was continued for 60 s. After another 60 s, a second GABA EC20 concentration was applied under the same paradigm. […] Following the second GABA EC20 application, the lowest concentration of test compound in the presence of the GABA EC20 concentration was similarly applied. Ascending concentrations of the test compound were applied successively to an individual well in the presence of the GABA EC20 concentration.
Only cells meeting strict predetermined patch-clamp QC parameters, including seal resistance, membrane resistance, and holding current were included in data analysis. GABA current responses in the presence of test compound were measured and expressed as the mean of the initial control GABA EC20 current responses. The peak current amplitude was measured using DataXpress/pCLAMP9 (Axon Instruments). Linear leak subtraction was performed off-line. […]

T1 sequence (P23576 29-451): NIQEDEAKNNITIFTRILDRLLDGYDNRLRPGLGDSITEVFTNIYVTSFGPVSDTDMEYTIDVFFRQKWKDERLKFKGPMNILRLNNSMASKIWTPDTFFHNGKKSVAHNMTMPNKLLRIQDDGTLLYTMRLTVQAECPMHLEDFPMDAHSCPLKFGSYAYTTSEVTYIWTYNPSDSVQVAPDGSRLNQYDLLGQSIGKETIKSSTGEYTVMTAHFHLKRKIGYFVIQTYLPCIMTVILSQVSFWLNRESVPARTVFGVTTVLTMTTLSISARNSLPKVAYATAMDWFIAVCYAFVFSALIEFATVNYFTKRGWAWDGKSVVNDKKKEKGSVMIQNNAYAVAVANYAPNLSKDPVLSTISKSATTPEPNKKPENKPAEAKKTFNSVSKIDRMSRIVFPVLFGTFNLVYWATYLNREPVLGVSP
T1 sequence (P63138 25-474 partner limits assumed): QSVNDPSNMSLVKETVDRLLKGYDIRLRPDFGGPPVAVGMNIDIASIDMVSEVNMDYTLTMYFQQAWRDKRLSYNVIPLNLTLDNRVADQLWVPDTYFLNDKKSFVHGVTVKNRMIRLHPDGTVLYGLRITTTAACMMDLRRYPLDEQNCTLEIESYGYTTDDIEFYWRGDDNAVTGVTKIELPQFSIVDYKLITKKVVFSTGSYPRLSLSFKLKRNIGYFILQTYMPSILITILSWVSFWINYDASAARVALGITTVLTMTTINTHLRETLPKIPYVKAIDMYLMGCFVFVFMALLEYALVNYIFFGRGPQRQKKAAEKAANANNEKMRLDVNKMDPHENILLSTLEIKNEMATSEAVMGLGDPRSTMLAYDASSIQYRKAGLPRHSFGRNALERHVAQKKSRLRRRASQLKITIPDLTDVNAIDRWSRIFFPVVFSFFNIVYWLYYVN
T1 sequence (P18508 39-466 partner): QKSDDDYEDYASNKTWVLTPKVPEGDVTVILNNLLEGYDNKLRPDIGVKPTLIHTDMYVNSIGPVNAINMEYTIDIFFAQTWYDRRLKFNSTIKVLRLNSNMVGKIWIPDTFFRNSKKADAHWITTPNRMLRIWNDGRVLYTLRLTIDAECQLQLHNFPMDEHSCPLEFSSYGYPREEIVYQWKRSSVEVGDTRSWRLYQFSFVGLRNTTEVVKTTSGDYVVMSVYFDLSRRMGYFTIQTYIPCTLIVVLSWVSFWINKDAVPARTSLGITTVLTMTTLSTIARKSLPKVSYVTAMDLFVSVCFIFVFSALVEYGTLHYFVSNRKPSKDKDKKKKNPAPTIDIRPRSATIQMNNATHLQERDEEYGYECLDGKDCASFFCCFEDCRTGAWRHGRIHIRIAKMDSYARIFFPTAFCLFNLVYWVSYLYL

In the case of C#Cc1ccc2c(c1)C(c1ccccc1)=NCc1c(C(=O)NCCOCCNC(=O)c3ncn4c3CN=C(c3ccccc3)c3cc(C#C)ccc3-4)ncn1-2 [Example 23, N,N′-(2,2′-Oxybis(ethane-2,1-diyl))bis(8-ethynyl-6-phenyl-4H-benzo[f]imidazo[1,5-a][1,4]diazepine-3-carboxamide)], the “GABAA α2 EP EMAX (%)” value is reported as “* (200% < Emax < 300 *)”.
For C#Cc1ccc2c(c1)C(c1ccccc1)=NCc1c(C(=O)NCCN(C)CCNC(=O)c3ncn4c3CN=C(c3ccccc3)c3cc(C#C)ccc3-4)ncn1-2 [Example 24, N,N′-(2,2′-(Methylazanediyl)bis(ethane-2,1-diyl))bis(8-ethynyl-6-phenyl-4H-benzo[f]imidazo[1,5-a][1,4]diazepine-3-carboxamide)], the “GABAA α2 EP EMAX (%)” value was “** (300% < Emax < 400 **)”.
For C#Cc1ccc2c(c1)C(c1ccccc1)=NCc1c(C(=O)NCCSCCNC(=O)c3ncn4c3CN=C(c3ccccc3)c3cc(C#C)ccc3-4)ncn1-2 [Example 25, N,N′-(2,2′-Thiobis(ethane-2,1-diyl))bis(8-ethynyl-6-phenyl-4H-benzo[f]imidazo[1,5-a][1,4]diazepine-3-carboxamide)], the “GABAA α2 EP EMAX (%)” value was “* (200% < Emax < 300 *)”.

Same assay, conditions: percent increase in mean GABA EC20 current response; HEK293 cells stably expressing rat GABAA α2β2γ2; voltage-clamped at −60 mV; read-out: GABAA α2 EP EMAX (%)

First: C#Cc1ccc2c(c1)C(c1ccccc1)=NCc1c(C(=O)N(CC)CC)ncn1-2 [Example 1, N,N-Diethyl-8-ethynyl-6-phenyl-4H-benzo[f]imidazo[1,5-a][1,4]diazepine-3-carboxamide]
Second: C#Cc1ccc2c(c1)C(c1ccccc1)=NCc1c(C(=O)NCC)ncn1-2 [Example 2, N-Ethyl-8-ethynyl-6-phenyl-4H-benzo[f]imidazo[1,5-a][1,4]diazepine-3-carboxamide dihydrochloride]
The Emax of the first is higher: 400 to 500% for the first, 300 to 400% for the second.

First: C#Cc1ccc2c(c1)C(c1ccccc1)=NCc1c(C(N)=O)ncn1-2 [Example 3, 8-Ethynyl-6-phenyl-4H-benzo[f]imidazo[1,5-a][1,4]diazepine-3-carboxamide]
Second: C#Cc1ccc2c(c1)C(c1ccccc1)=NCc1c(C(=O)NCCO)ncn1-2 [Example 5, 8-Ethynyl-N-(2-hydroxyethyl)-6-phenyl-4H-benzo[f]imidazo[1,5-a][1,4]diazepine-3-carboxamide]
The Emax of the first is lower: 300 to 400% for the first, 400 to 500% for the second.

First: C#Cc1ccc2c(c1)C(c1ccccc1)=NCc1c(C(=O)NCCOC)ncn1-2 [Example 4, 8-Ethynyl-N-(2-methoxyethyl)-6-phenyl-4H-benzo[f]imidazo[1,5-a][1,4]diazepine-3-carboxamide Dihydrochloride]
Second: C#Cc1ccc2c(c1)C(c1ccccc1)=NCc1c(C(=O)NCCCOC)ncn1-2 [Example 18, 8-Ethynyl-N-(3-methoxypropyl)-6-phenyl-4H-benzo[f]imidazo[1,5-a][1,4]diazepine-3-carboxamide]
The Emax of the first is higher: over 500% for the first, 400 to 500% for the second.

First: C#Cc1ccc2c(c1)C(c1ccccc1)=NCc1c(C(=O)NCCN(C)C)ncn1-2 [Example 6, N-(2-(Dimethylamino)ethyl)-8-ethynyl-6-phenyl-4H-benzo[f]imidazo[1,5-a][1,4]diazepine-3-carboxamide]
Second: C#Cc1ccc2c(c1)C(c1ccccc1)=NCc1c(C(=O)NCCOC(C)C)ncn1-2 [Example 20, 8-Ethynyl-N-(2-isopropoxyethyl)-6-phenyl-4H-benzo[f]imidazo[1,5-a][1,4]diazepine-3-carboxamide]
The Emax of the first is lower: 300 to 400% for the first, 400 to 500% for the second.

C#Cc1ccc2c(c1)C(c1ccccc1)=NCc1c(C(=O)NCC(=O)OCC)ncn1-2 [Example 7, Ethyl 2-(8-ethynyl-6-phenyl-4H-benzo[f]imidazo[1,5-a][1,4]diazepine-3-carboxamido)acetate] and C#Cc1ccc2c(c1)C(c1ccccc1)=NCc1c(C(=O)NCCOCC)ncn1-2 [Example 12, N-(2-Ethoxyethyl)-8-ethynyl-6-phenyl-4H-benzo[f]imidazo[1,5-a][1,4]diazepine-3-carboxamide dihydrochloride] fall in the same range of Emax: 300 to 400% for the first, 300 to 400% for the second.

First: C#Cc1ccc2c(c1)C(c1ccccc1)=NCc1c(C(=O)N3CCN(C)CC3)ncn1-2 [Example 8, (8-Ethynyl-6-phenyl-4H-benzo[f]imidazo[1,5-a][1,4]diazepin-3-yl)(4-methylpiperazin-1-yl)methanone]
Second: C#Cc1ccc2c(c1)C(c1ccccc1)=NCc1c(C(=O)N3CCOCC3)ncn1-2 [Example 9]
The Emax of the first is lower: 300 to 400% for the first, 400 to 500% for the second.

Compared with C#Cc1ccc2c(c1)C(c1ccccc1)=NCc1c(C(=O)NC3CC3)ncn1-2 [Example 10, N-Cyclopropyl-8-ethynyl-6-phenyl-4H-benzo[f]imidazo[1,5-a][1,4]diazepine-3-carboxamide], C#Cc1ccc2c(c1)C(c1ccccc1)=NCc1c(C(=O)N[C@@H](COC)C3CC3)ncn1-2 [Example 14, N—((R)-1-Cyclopropyl-2-methoxyethyl)-8-ethynyl-6-phenyl-4H-benzo[f]imidazo[1,5-a][1,4]diazepine-3-carboxamide] is lower in Emax: over 500% for the first, 200 to 300% for the second.

C#Cc1ccc2c(c1)C(c1ccccc1)=NCc1c(C(=O)NC(CC)COC)ncn1-2 (centres unmarked) [Example 13, 8-Ethynyl-N-(1-methoxybutan-2-yl)-6-phenyl-4H-benzo[f]imidazo[1,5-a][1,4]diazepine-3-carboxamide] and C#Cc1ccc2c(c1)C(c1ccccc1)=NCc1c(C(=O)NC(COC)COC)ncn1-2 [Example 15, N-(1,3-Dimethoxypropan-2-yl)-8-ethynyl-6-phenyl-4H-benzo[f]imidazo[1,5-a][1,4]diazepine-3-carboxamide] fall in the same range of Emax: 200 to 300% for the first, 200 to 300% for the second.

Compared with C#Cc1ccc2c(c1)C(c1ccccc1)=NCc1c(C(=O)N(CCOC)CCOC)ncn1-2 [Example 16, 8-Ethynyl-N,N-bis(2-methoxyethyl)-6-phenyl-4H-benzo[f]imidazo[1,5-a][1,4]diazepine-3-carboxamide], C#Cc1ccc2c(c1)C(c1ccccc1)=NCc1c(C(=O)NCCOCCC)ncn1-2 [Example 19, 8-Ethynyl-6-phenyl-N-(2-propoxyethyl)-4H-benzo[f]imidazo[1,5-a][1,4]diazepine-3-carboxamide] is higher in Emax: 200 to 300% for the first, 400 to 500% for the second.

C#Cc1ccc2c(c1)C(c1ccccc1)=NCc1c(C(=O)NC(C)COC)ncn1-2 (centres unmarked) [Example 17, 8-Ethynyl-N-(1-methoxypropan-2-yl)-6-phenyl-4H-benzo[f]imidazo[1,5-a][1,4]diazepine-3-carboxamide] and C#Cc1ccc2c(c1)C(c1ccccc1)=NCc1c(C(=O)NC[C@@H](C)O)ncn1-2 [Example 27, 8-Ethynyl-N—((R)-2-hydroxypropyl)-6-phenyl-4H-benzo[f]imidazo[1,5-a][1,4]diazepine-3-carboxamide] fall in the same range of Emax: 200 to 300% for the first, 200 to 300% for the second.

Compared with C#Cc1ccc2c(c1)C(c1ccccc1)=NCc1c(C(=O)N3CCN(c4ncccn4)CC3)ncn1-2 [Example 21, (8-Ethynyl-6-phenyl-4H-benzo[f]imidazo[1,5-a][1,4]diazepin-3-yl)(4-(pyrimidin-2-yl)piperazin-1-yl)methanone], C#Cc1ccc2c(c1)C(c1ccccc1)=NCc1c(C(=O)NC[C@H](C)O)ncn1-2 [Example 28, 8-Ethynyl-N—((S)-2-hydroxypropyl)-6-phenyl-4H-benzo[f]imidazo[1,5-a][1,4]diazepine-3-carboxamide] is higher in Emax: 200 to 300% for the first, 300 to 400% for the second.

Molecule C#Cc1ccc2c(c1)C(c1ccccc1)=NCc1c(C(=O)NCC(O)CC)ncn1-2 (centres unmarked) [Example 26, 8-Ethynyl-N-(2-hydroxybutyl)-6-phenyl-4H-benzo[f]imidazo[1,5-a][1,4]diazepine-3-carboxamide] has an Emax of 200 to 300%.
